According to patent US8044198B2, “Sirtuin modulating compounds” (Sirtris Pharmaceuticals, Inc., priority 2005, dated 2011):
Read-outs that look alike come from different tables or passages of the source.

Molecular target: T1, SIRT1 (Homo sapiens, UniProt Q96EB6)
T1 sequence (Q96EB6 1-747): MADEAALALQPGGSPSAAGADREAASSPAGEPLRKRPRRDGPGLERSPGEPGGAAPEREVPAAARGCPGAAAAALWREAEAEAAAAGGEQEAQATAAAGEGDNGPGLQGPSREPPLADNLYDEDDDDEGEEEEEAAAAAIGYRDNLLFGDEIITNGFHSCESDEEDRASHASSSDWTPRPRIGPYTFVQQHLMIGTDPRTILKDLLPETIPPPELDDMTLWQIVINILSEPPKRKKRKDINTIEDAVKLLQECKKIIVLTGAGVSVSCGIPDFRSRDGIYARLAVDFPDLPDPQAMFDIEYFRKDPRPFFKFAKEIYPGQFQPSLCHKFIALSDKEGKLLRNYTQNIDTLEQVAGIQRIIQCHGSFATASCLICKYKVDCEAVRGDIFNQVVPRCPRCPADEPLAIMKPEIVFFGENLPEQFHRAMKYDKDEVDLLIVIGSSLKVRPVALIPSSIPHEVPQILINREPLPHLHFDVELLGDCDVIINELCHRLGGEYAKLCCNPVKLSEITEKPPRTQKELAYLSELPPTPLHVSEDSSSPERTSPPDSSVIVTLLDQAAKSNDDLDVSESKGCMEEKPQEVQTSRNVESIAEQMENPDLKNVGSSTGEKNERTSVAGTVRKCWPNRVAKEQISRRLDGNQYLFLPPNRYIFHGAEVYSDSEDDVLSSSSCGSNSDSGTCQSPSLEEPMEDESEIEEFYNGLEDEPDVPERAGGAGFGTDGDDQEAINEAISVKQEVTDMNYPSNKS
Test: SIRT1 mass spectrometry (MS) based deacetylation assay; for FOLD ACT. MS: test concentration or dose not given here
Type: biochemical

[1] = SIRT1 activation, mass spectrometry assay, read-out: ED50 MS ASSAY
[2] = fold activation of SIRT1 as determined by MS

| SMILES | EC50 [1] [µM] | FOLD ACT. MS (fold activation of SIRT1, mass spectrometry assay) | FOLD ACT. MS [2] | EC50 [µM] |
| --- | --- | --- | --- | --- |
| COc1cc(C(=O)Nc2ccccc2-c2cccs2)cc(OC)c1OC [336 10] | 5 to 50 | B (B (Fold Activation <250%)) | – | – |
| O=C(Nc1cccc(-c2nc3ncccc3o2)c1)c1ccccc1 [Compound 56] | 5 to 50 | – | B (B (Fold Activation <250%)) | – |
| COc1cc(C(=O)Nc2cccc(-c3nc4ncccc4o3)n2)cc(OC)c1OC [Compound 57] | 5 to 50 | – | – | – |
| COc1ccc(S(=O)(=O)Nc2cccc(-c3nc4ncccc4o3)n2)cc1OC [Compound 60] | 5 to 50 | – | – | – |
| COc1ccc(C(=O)Nc2cc(-c3nc4ncccc4o3)ccn2)cc1OC [Compound 63] | 5 to 50 | – | – | – |
| CN(C)c1cccc(C(=O)Nc2cccc(-c3nc4ncccc4o3)n2)c1 [Compound 64] | 5 to 50 | – | – | – |
| COc1cc(C(=O)Nc2cncc(-c3nc4ncccc4o3)c2)cc(OC)c1OC [Compound 66] | 5 to 50 | – | – | – |
| COc1ccc(C(=O)Nc2cncc(-c3nc4ncccc4o3)c2)cc1OC [Compound 67] | 5 to 50 | – | – | – |
| CN(C)c1cccc(C(=O)Nc2cncc(-c3nc4ncccc4o3)c2)c1 [Compound 68] | 5 to 50 | – | – | – |
| COc1ccc(C(=O)Nc2cccc(-c3nc4ncccc4o3)n2)c(OC)c1 [Compound 69] | 5 to 50 | – | B (B (Fold Activation <250%)) | – |
| CN(C)c1ccc(C(=O)Nc2cccc(-c3nc4ncccc4o3)n2)cc1 [Compound 70] | 5 to 50 | – | B (B (Fold Activation <250%)) | – |
| O=C(Nc1ccc2c(c1)OCO2)Nc1cccc(-c2nc3ncccc3o2)n1 [Compound 71] | 5 to 50 | – | B (B (Fold Activation <250%)) | – |
| COc1ccc(S(=O)(=O)Nc2cncc(-c3nc4ncccc4o3)c2)cc1OC [Compound 74] | > 150 | – | – | – |
| COc1cc(C(=O)Nc2cc(-c3nc4ncccc4o3)ccn2)cc(OC)c1OC [Compound 75] | 5 to 50 | – | B (B (Fold Activation <250%)) | – |
| CN(C)c1cccc(C(=O)Nc2cc(-c3nc4ncccc4o3)ccn2)c1 [Compound 76] | 5 to 50 | – | B (B (Fold Activation <250%)) | – |
| COc1ccc(C(=O)Nc2cc(-c3nc4ccccc4o3)ccn2)cc1OC [Compound 77] | – | – | B (B (Fold Activation <250%)) | 5 to 50 |
| COc1ccc(C(=O)Nc2cccc(-c3csc(C)n3)c2)cc1OC [Compound 80] | 5 to 50 | – | B (B (Fold Activation <250%)) | – |
| COc1ccc(C(=O)Nc2cccc(-c3csc(C)n3)c2)c(OC)c1 [Compound 81] | 5 to 50 | – | B (B (Fold Activation <250%)) | – |
| COc1ccc(C(=O)Nc2cccc(-c3nnc(-c4ccccc4)o3)c2)c(OC)c1 [Compound 82] | 101 to 150 | – | – | – |
| COc1cc(SC)ccc1C(=O)Nc1cccc(-c2nncn2C)c1 [Compound 83] | 5 to 50 | – | B (B (Fold Activation <250%)) | – |
| COc1ccc(C(=O)Nc2cccc(-c3csc(-c4ccccc4)n3)c2)cc1OC [Compound 84] | 5 to 50 | – | B (B (Fold Activation <250%)) | – |
| c1ccc2oc(N3CCCN(c4nc5ccccc5o4)CC3)nc2c1 [Compound 85] | > 150 | – | – | – |
| CN(C)c1ccc(NC(=O)Nc2cccc(-c3nc4ncccc4o3)n2)cc1 [Compound 87] | > 150 | – | – | – |

| SMILES | EC50 [1] [µM] | FOLD ACT. MS (fold activation of SIRT1, mass spectrometry assay) | FOLD ACT. MS [2] | EC50 [µM] |
| --- | --- | --- | --- | --- |
| COc1ccc(C(=O)N2CCCN(c3nc4ccccc4o3)CC2)c(OC)c1 [Compound 88] | > 150 | – | – | – |
| c1cc(Nc2nc3ccccc3s2)cc(-c2nc3ncccc3o2)c1 [Compound 95] | < 5 | – | B (B (Fold Activation <250%)) | – |
| COc1ccc(C(=O)Nc2ccccc2-c2nc3ncccc3o2)cc1OC [Compound 96] | < 5 | – | B (B (Fold Activation <250%)) | – |
| CC(C)(C)c1ccc(S(=O)(=O)Nc2ccccc2-c2nc3ncccc3o2)cc1 [Compound 98] | > 150 | – | – | – |
| O=C(NCc1ccc2c(c1)OCO2)c1cccc(-c2nc3ncccc3o2)c1 [Compound 103] | > 150 | – | – | – |
| COc1ccc(C(=O)Nc2cc(C(=O)N3CCNCC3)cc(-c3nc4ncccc4o3)c2)cc1OC [Compound 107, 3,4-dimethoxy-N-(3-(oxazolo[4,5-b]pyridin-2-yl)-5-(piperazine-1-carbonyl)phenyl)benzamide] | 5 to 50 | – | B (B (Fold Activation <250%)) | – |
| O=C(Nc1cccc(-c2nc3ncccc3o2)c1)c1ccccc1N1CCOCC1 [Compound 109] | 5 to 50 | – | B (B (Fold Activation <250%)) | – |
| CN(C)c1cccc(C(=O)Nc2cccc(-c3nc4cccnc4o3)c2)c1 [Compound 111] | 5 to 50 | – | B (B (Fold Activation <250%)) | – |
| COc1ccc(C(=O)Nc2cccc(-c3nc4cccnc4o3)c2)cc1OC [Compound 112] | 5 to 50 | – | B (B (Fold Activation <250%)) | – |
| CN(C)c1cccc(C(=O)Nc2cccc(-c3nc4ccncc4s3)c2)c1 [Compound 113] | 5 to 50 | – | B (B (Fold Activation <250%)) | – |
| COc1ccc(C(=O)Nc2cccc(-c3nc4ccncc4s3)c2)cc1OC [Compound 114] | < 5 | – | A (A (Fold activation >250%)) | – |
| COc1cc(C(=O)Nc2cccc(-c3nc4sccn4n3)c2)cc(OC)c1OC [Compound 118] | 5 to 50 | – | A (A (Fold activation >250%)) | – |
| COc1cccc(OC)c1C(=O)Nc1cccc(-c2nc3ccccc3o2)c1 [Compound 119] | 5 to 50 | – | B (B (Fold Activation <250%)) | – |
| COc1ccc(C(=O)Nc2cccc(-c3nc4ccccc4s3)c2)c(OC)c1 [Compound 124] | 5 to 50 | – | B (B (Fold Activation <250%)) | – |
| COc1cc(C(=O)Nc2cccc(-c3nc4ccccc4c(=O)o3)c2)cc(OC)c1OC [Compound 125] | – | – | B (B (Fold Activation <250%)) | – |
| COc1cccc(OC)c1C(=O)Nc1cccc(-c2nc3ccccc3[nH]2)c1 [Compound 126] | 5 to 50 | – | B (B (Fold Activation <250%)) | – |
| COc1ccc(C(=O)Nc2cccc(-c3cn4ccc(C)cc4n3)c2)c(OC)c1 [Compound 128] | 5 to 50 | – | B (B (Fold Activation <250%)) | – |
| COc1cc(C(=O)Nc2cccc(-c3cn4ccc(C)cc4n3)c2)cc(OC)c1OC [Compound 129] | < 5 | – | A (A (Fold activation >250%)) | – |
| COc1ccc(C(=O)Nc2cccc(-c3cn4ccc(C)cc4n3)c2)cc1 [Compound 130] | 5 to 50 | – | B (B (Fold Activation <250%)) | – |
| COc1cc(C(=O)Nc2cccc(-c3cn4cccc(C)c4n3)c2)cc(OC)c1OC [Compound 131] | 5 to 50 | – | A (A (Fold activation >250%)) | – |
| COc1ccccc1C(=O)Nc1cccc(-c2cn3ccsc3n2)c1 [Compound 132] | 5 to 50 | – | A (A (Fold activation >250%)) | – |
| COC(=O)c1cc(NC(=O)c2cc(OC)c(OC)c(OC)c2)cc(-c2nc3ccncc3s2)c1 [Compound 133, methyl 3-(thiazolo[5,4-c]pyridin-2-yl)-5-(3,4,5-trimethoxybenzamido)benzoate] | < 5 | – | B (B (Fold Activation <250%)) | – |
| COc1cc(C(=O)Nc2cc(C(=O)O)cc(-c3nc4ccncc4s3)c2)cc(OC)c1OC [Compound 134, 3-(thiazolo[5,4-c]pyridin-2-yl)-5-(3,4,5-trimethoxybenzamido)benzoic acid] | < 5 | – | B (B (Fold Activation <250%)) | – |
